Results: paper PMC10683025, “Discovery of a Hydroxylamine-Based Brain-Penetrant EGFR Inhibitor for Metastatic Non-Small-Cell Lung Cancer” (Journal of Medicinal Chemistry, 2023)

Experiments:
AURKB = biological target: T1, AURKB (Homo sapiens, UniProt Q96GD4); assay: KINOMEScan; format: binding; details: read-out: Percent Control
T1 construct: purchased Eurofins DiscoverX (KINOMEscan)

DRAK1 = biological target: T2, DRAK1 (Homo sapiens, UniProt Q9UEE5); assay: KINOMEScan KdELECT Kd determination; format: binding; details: read-out: Kinase Kd
T2 construct: purchased Eurofins DiscoverX (contract assay)
T2 sequence (Q9UEE5 1-414): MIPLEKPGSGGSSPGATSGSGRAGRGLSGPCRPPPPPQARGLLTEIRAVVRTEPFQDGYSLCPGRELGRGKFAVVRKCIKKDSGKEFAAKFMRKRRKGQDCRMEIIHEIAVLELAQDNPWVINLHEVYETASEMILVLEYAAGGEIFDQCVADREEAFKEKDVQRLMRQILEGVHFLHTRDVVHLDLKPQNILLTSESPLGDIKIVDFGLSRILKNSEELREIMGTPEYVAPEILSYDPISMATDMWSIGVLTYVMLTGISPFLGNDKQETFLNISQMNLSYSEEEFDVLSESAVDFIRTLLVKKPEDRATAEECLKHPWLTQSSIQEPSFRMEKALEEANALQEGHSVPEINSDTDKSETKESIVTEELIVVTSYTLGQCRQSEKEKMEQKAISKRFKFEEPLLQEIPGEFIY
Description: (§1) In vitro kinase activity (inhibitor binding constants (Kd) and biochemical inhibition (IC50’s)) were assessed by Eurofins DiscoverX (Kd determinations) and Eurofins Cerep (biochemical IC50 determinations).

LYN = biological target: T3, LYN (Homo sapiens, UniProt P07948); assay: KINOMEScan KdELECT Kd determination; format: binding; details: read-out: Kinase Kd
T3 construct: purchased Eurofins DiscoverX (contract assay)
Description: as §1

BCR-ABLwt (Nonphos.) = biological target: T4, BCR-ABLwt (Nonphos.) (Homo sapiens, UniProt P00519); assay: KINOMEScan KdELECT Kd determination; format: binding; details: read-out: Kinase Kd
T4 construct: purchased Eurofins DiscoverX (contract assay)
Description: as §1

ERBB2 = biological target: T5, ERBB2 (Homo sapiens, UniProt P04626); assay: KINOMEScan KdELECT Kd determination; format: binding; details: read-out: Kinase Kd
T5 construct: purchased Eurofins DiscoverX (contract assay)
Description: as §1

BCR-ABLwt (Phos.) = biological target: T6, BCR-ABLwt (Phos.) (Homo sapiens, UniProt P00519); assay: KINOMEScan KdELECT Kd determination; format: binding; details: read-out: Kinase Kd
T6 construct: purchased Eurofins DiscoverX (contract assay)
Description: as §1

BRSK1 = biological target: T7, BRSK1 (Homo sapiens, UniProt Q8TDC3); assay: KINOMEScan; format: binding; details: BRSK1, 1 µM; read-out: Percent Control
T7 construct: purchased Eurofins DiscoverX (KINOMEscan)
Description: (§2) Percent control was mapped onto the kinome tree using TREEspot.

[1] = biological target: T8, ABL1(F317I)-nonphosphorylated (Homo sapiens, UniProt P00519, F317I); assay: KINOMEScan; format: binding; details: read-out: Percent Control
T8 construct: purchased Eurofins DiscoverX
T8 sequence (P00519 whole entry F317I): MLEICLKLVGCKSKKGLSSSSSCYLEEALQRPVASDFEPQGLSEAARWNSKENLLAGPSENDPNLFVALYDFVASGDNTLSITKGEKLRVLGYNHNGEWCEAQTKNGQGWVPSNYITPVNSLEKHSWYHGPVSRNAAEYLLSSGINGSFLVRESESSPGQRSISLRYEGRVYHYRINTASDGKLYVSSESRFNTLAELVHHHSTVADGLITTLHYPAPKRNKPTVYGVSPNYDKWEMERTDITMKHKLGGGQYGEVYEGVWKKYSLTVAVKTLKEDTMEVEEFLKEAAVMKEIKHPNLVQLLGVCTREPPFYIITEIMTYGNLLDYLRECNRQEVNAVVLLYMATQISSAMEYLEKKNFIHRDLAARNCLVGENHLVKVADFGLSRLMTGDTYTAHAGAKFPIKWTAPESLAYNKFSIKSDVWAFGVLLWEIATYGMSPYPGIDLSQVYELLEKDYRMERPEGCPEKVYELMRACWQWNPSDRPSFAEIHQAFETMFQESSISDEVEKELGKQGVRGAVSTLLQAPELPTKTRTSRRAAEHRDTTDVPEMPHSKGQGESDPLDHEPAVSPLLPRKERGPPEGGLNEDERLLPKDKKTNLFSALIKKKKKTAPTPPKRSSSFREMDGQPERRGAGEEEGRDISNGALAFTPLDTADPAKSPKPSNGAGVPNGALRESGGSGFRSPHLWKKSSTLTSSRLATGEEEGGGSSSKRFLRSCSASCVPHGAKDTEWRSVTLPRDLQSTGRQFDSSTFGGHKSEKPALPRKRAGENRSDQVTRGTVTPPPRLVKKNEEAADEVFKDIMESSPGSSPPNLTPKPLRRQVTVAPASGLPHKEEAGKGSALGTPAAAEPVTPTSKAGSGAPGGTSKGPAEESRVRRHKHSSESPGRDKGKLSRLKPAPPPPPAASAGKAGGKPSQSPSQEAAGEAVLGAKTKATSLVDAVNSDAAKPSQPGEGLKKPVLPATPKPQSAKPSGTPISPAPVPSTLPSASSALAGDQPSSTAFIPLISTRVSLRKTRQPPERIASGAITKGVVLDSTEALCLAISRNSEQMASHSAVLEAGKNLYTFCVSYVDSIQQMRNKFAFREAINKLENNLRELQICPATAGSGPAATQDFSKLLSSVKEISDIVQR
Description: as §2

[2] = test system: HER2+ breast cancer cell lines; assay: CellTiter-Glo cell viability assay; format: cell-based; details: Homo sapiens; range over cell lines; read-out: IC50's in HER2+ breast cancer cell lines
Description: The A431, HCC827, SK-BR-3, ZR-75–30, AU565, and Caco-2 cell lines were obtained from ATCC. The NCI-H1975 cell line was obtained from SIBS. The NCI-H3255 cell line was obtained from CoBioer. Engineered Ba/F3 cell lines were obtained from Crown Bioscience. MCKII-MDR1 cells were obtained from The Netherlands Cancer Institute. HEK293 cells were obtained from Invitrogen. A431 cells were cultured in DMEM (Life Technologies) with 10% FBS. HCC827, NCI-H1975, and AU565 cells were cultured in RPMI1640 (Invitrogen) with 10% FBS. NCI-H3255 cells were cultured in BEGM (Lonza) with 10% FBS. Ba/F3 EGFR-del E746_A750/C797S and Ba/F3 EGFR-L858R/C797S cells were cultured in RPMI (Invitrogen) with 10% FBS. SK-BR-3 cells were cultured in McCoy’s 5a (Invitrogen) with 10% FBS. ZR-75-30 cells were cultured in RPMI1640 (Invitrogen) with 20% FBS. Caco-2 and MCKII-MDR1 culture information is given in the Permeability Studies section. HEK293 cells were cultured in DMEM (Gibco) with 10% FBS, 0.1 mM NEAA, 25 mM HEPES, 100 U/mL penicillin-streptomycin, μg/mL blasticidin, and 400 μg/mL Geneticin. All cells were cultured in a humidified incubator with 5% CO2 at 37 °C.
Viability assays using A431, HCC827, NCI-H1975, NCI-H3255, Ba/F3 EGFR-del E746_A750/C797S, Ba/F3 EGFR-L858R/C797S, AU565, SK-BR-3, and ZR-75-30 cells were performed at Crown BioScience. Cells were plated into 96-well plates at 1500–7000 cells per well and dosed in triplicate (n = 3) in a nine-point, 4-fold dilution series with compounds (0.15 nM to 10 μM) in DMSO and incubated for 72 h. After 72 h, cell viability was assayed by CellTiter-Glo Luminescent Viability Assay (Promega). Dose–response curves were generated and used to calculate the IC50 values which were calculated on GraphPad Prism from the nonlinear regression equation fitted with a sigmoidal dose response and are presented as mean ± SEM.

AMPK-alpha1 = biological target: T9, AMPK-alpha1 (Homo sapiens, UniProt Q13131); assay: KINOMEScan; format: binding; details: AMPK-alpha1, 1 µM; read-out: Percent Control
T9 construct: purchased Eurofins DiscoverX (KINOMEscan)
T9 sequence (Q13131 whole entry): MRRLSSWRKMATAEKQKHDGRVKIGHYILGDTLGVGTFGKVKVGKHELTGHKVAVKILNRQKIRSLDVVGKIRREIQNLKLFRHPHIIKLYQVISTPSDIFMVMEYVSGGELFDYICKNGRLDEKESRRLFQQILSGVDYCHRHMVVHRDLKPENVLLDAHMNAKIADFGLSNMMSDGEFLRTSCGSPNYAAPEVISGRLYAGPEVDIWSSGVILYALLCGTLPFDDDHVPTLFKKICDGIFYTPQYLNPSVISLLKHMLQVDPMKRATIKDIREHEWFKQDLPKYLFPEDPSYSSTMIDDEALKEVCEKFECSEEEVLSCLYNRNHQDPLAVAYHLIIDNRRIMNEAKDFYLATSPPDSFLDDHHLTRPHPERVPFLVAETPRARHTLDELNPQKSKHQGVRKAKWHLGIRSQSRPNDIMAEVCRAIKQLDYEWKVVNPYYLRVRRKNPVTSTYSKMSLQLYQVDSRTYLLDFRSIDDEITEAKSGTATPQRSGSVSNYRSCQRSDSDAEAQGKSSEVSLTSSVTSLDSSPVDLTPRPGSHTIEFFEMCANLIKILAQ
Description: as §2

AKT2 = biological target: T10, AKT2 (Homo sapiens, UniProt P31751); assay: KINOMEScan; format: binding; details: AKT2, 1 µM; read-out: Percent Control
T10 construct: purchased Eurofins DiscoverX (KINOMEscan)
T10 sequence (P31751 whole entry): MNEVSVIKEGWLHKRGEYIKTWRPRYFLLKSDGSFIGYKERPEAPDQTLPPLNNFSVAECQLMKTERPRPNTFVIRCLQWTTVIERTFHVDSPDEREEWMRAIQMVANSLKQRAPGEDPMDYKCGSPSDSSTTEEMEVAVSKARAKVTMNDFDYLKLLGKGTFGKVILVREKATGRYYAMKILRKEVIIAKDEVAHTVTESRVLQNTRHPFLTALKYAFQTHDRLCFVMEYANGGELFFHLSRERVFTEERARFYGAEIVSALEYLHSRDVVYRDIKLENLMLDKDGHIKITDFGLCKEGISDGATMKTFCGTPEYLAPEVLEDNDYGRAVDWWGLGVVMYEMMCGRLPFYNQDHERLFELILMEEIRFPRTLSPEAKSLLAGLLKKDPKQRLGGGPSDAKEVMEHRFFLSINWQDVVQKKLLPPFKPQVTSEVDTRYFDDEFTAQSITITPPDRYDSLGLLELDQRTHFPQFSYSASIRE
Description: as §2

YSK1 = biological target: T11, YSK1 (Homo sapiens, UniProt O00506); assay: KINOMEScan; format: binding; details: YSK1, 1 µM; read-out: Percent Control
T11 construct: purchased Eurofins DiscoverX (KINOMEScan service)
T11 sequence (O00506 whole entry): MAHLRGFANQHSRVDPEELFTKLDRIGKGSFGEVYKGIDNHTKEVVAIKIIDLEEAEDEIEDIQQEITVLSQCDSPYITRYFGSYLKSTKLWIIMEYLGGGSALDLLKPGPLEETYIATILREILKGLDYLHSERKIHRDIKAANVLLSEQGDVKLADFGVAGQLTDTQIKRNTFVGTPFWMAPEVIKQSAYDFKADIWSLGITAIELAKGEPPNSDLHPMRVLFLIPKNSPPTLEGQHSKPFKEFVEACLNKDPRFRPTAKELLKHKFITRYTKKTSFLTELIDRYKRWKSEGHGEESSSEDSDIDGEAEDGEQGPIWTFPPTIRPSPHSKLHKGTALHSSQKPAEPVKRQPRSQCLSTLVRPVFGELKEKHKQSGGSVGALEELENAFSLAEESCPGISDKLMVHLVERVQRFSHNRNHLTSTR

ACVR2B = biological target: T12, ACVR2B (Homo sapiens, UniProt Q13705); assay: KINOMEScan; format: binding; details: read-out: Percent Control
T12 construct: purchased Eurofins DiscoverX (KINOMEscan)
Description: as §2

WEE1 = biological target: T13, WEE1 (Homo sapiens, UniProt P30291); assay: KINOMEScan; format: binding; details: WEE1, 1 µM; read-out: Percent Control
T13 construct: purchased Eurofins DiscoverX
T13 sequence (P30291 whole entry): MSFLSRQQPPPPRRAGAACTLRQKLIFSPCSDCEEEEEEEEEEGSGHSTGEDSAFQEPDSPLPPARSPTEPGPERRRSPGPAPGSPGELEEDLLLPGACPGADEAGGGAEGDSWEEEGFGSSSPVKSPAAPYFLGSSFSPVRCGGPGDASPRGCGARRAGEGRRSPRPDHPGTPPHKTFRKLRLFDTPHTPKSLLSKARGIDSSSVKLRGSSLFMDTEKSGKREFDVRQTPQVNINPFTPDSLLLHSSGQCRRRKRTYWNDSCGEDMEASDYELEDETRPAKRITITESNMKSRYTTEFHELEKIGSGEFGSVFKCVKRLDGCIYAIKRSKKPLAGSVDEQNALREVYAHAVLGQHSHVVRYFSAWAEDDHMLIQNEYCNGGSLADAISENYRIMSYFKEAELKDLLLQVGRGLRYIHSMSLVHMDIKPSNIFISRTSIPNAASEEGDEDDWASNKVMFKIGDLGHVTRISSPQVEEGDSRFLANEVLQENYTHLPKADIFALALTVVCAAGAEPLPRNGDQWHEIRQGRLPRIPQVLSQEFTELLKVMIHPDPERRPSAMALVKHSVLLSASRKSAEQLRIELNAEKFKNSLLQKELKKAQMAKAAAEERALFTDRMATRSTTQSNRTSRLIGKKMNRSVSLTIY
Description: as §2

ANKK1 = biological target: T14, ANKK1 (Homo sapiens, UniProt Q8NFD2); assay: KINOMEScan; format: binding; details: ANKK1, 1 µM; read-out: Percent Control
T14 construct: purchased Eurofins DiscoverX (KINOMEscan)
T14 sequence (Q8NFD2 whole entry): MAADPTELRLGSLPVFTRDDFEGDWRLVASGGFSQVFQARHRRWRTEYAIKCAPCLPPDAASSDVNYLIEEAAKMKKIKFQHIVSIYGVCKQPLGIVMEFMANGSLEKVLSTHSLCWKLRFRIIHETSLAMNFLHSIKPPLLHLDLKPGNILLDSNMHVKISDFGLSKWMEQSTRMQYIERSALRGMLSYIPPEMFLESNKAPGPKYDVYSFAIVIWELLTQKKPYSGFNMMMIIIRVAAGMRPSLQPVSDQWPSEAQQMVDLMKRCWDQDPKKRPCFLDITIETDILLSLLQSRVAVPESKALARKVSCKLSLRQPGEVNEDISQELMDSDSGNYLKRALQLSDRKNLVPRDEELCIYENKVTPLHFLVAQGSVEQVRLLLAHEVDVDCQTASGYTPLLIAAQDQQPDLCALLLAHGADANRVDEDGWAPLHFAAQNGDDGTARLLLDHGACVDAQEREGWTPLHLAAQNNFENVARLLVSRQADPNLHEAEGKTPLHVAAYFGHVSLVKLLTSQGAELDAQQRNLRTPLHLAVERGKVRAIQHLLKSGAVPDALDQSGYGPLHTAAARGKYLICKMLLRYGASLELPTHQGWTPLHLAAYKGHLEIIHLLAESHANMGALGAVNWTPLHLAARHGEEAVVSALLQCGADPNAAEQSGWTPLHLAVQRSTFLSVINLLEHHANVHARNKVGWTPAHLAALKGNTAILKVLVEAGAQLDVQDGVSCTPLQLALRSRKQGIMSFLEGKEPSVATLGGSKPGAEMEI
Description: as §2

CYP2D6 = CYP2D6 (Homo sapiens, UniProt P10635); assay: CYP2D6 time-dependent inhibition in primary human hepatocytes; details: for Inhibition percentage(%) at Top conc.: human hepatocytes; for IC50 at 5 min: human, primary human hepatocytes, probe dextromethorphan (40 μM), O-demethylation
CYP2D6, sequence (P10635 whole entry): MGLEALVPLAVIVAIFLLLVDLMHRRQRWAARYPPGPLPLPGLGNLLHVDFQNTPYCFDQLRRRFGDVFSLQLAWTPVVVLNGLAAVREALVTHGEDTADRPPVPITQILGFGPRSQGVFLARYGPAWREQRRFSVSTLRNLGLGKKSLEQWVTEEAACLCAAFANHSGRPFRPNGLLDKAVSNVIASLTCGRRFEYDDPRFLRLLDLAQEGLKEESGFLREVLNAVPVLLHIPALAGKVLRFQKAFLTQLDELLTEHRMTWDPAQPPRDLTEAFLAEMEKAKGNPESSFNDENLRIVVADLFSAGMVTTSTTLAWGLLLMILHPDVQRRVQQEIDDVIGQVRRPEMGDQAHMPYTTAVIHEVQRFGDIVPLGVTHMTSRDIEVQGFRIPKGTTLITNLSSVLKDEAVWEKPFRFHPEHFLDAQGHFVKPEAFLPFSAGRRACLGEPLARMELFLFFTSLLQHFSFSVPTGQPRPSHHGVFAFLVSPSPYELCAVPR

[3] = biological target: T15, ABL1(F317L)-nonphosphorylated (Homo sapiens, UniProt P00519, F317L); assay: KINOMEScan; format: binding; details: read-out: Percent Control
T15 construct: purchased Eurofins DiscoverX
Description: as §2

ACVR1B = biological target: T16, ACVR1B (Homo sapiens, UniProt P36896); assay: KINOMEScan; format: binding; details: read-out: Percent Control
T16 construct: purchased Eurofins DiscoverX
Description: as §2

YES = biological target: T17, YES (Homo sapiens, UniProt P07947); assay: KINOMEScan; format: binding; details: read-out: Percent Control
T17 construct: purchased Eurofins DiscoverX (KINOMEScan service)
T17 sequence (P07947 whole entry): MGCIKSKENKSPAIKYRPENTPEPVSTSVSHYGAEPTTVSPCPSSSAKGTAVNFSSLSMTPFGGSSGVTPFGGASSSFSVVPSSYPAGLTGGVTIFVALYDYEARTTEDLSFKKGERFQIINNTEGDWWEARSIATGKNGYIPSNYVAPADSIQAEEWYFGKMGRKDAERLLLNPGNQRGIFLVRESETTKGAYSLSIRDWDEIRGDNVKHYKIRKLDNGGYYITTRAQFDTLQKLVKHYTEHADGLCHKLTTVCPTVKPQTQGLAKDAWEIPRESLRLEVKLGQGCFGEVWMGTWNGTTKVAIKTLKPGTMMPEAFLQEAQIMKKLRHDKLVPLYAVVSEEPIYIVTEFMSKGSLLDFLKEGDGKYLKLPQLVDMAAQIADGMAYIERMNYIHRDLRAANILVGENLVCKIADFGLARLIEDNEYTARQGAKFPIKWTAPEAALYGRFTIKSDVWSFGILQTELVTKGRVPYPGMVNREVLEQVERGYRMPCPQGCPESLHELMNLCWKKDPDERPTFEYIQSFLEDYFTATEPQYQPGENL

[4] = CYP2D6 IC50, human hepatocytes, pre-incubation 30 min

For `COc1cc2ncnc(Nc3cccc(Cl)c3F)c2cc1OCCON1CCN(C)CC1` [Compound 9, N-(3-Chloro-2-fluorophenyl)-7-methoxy-6-(2-((4-methylpiperazin-1-yl)oxy)ethoxy)quinazolin-4-amine], the remaining binding at 1 µM (AURKB) was 84%, the Kd (DRAK1) was 87 nM and the Kd (LYN) was 110 nM. The Kd (BCR-ABLwt (Nonphos.)) was 260 nM, the Kd (ERBB2) was 21 nM and the Kd (BCR-ABLwt (Phos.)) was 180 nM. For the same compound, the remaining binding at 1 µM (BRSK1) was 100%, the remaining binding at 1 µM [1] was 54% and the IC50 [2] was 990 to 1600 nM. It also gave a remaining binding at 1 µM (AMPK-alpha1) of 100%, a remaining binding at 1 µM (AKT2) of 91% and a remaining binding at 1 µM (YSK1) of 94%. The remaining binding at 1 µM (ACVR2B) was 100%, the remaining binding at 1 µM (WEE1) was 100% and the remaining binding at 1 µM (ANKK1) was 97%. For the same compound, the IC50 (CYP2D6; [4]) was 4.75 µM, the “Inhibition percentage(%) at Top conc.” value (CYP2D6; 0 min) was 63.41% and the “Inhibition percentage(%) at Top conc.” value (CYP2D6; 30 min) was 66.54%. For the same compound, the IC50 at 5 min (CYP2D6; CYP2D6 IC50, human hepatocytes, pre-incubation 0 min) was 4.57 µM, the IC50 at 5 min (CYP2D6; [4]) was 4.73 µM and the remaining binding at 1 µM [3] was 16%. For the same compound, the remaining binding at 1 µM (ACVR1B) was 86% and the remaining binding at 1 µM (YES) was 59%.
